Results taken from PubChem BioAssay AID449762 (Southern Research Specialized Biocontainment Screening …, 2010).
Inconclusive results are not listed.

These molecules were tested on M. tuberculosis H37Rv growth inhibition, 7H9 media (assay: M. tuberculosis growth inhibition, HTS (AID 449762;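 note: bacterial growth assessed after seven days of incubation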)). Conditions: not given.

Going from `O=C(Oc1ccccc1)c1ccccc1OS(=O)(=O)c1ccccc1` to `O=C(NC(C(=O)N/N=C/c1cccc2ccccc12)c1n[nH]c(=O)c2ccccc12)c1ccccc1` (stereo not given), the IC50 rises from 1.1 µM to 53.2 µM (48-fold). The first is the more potent here.

`C[C@]12C=CC(=O)C=C1CC[C@@H]1C2=CC[C@]2(C)[C@@H](C(=O)CN3CCN(c4cc(N5CCCC5)nc(N5CCCC5)n4)CC3)CC[C@@H]12` and `Cc1ccc(Cl)cc1N1CCN(C(=O)C2CCC(=O)N(C3CCCCCC3)C2)CC1` (stereo not given) are within 1.5-fold of each other in IC50: 22.5 µM for the first, 19.3 µM for the second.

Compared with `CCCCOC(=O)CSc1nnc(-c2ccc(Cl)cc2Cl)o1`, `Cc1nnc(SCc2ccccc2Cl)n(N)c1=O` is higher in IC50: under 0.2 µM for the first, 0.38 µM for the second.

Going from `Cc1ccc(N2C(=O)C(F)(F)C2c2ccccc2)cc1` (stereo not given) to `Cc1ccc(O)c(C(=O)CC(=O)c2ccccc2Cl)c1`, the IC50 rises from 2.79 µM to 10.7 µM (3.8-fold). The first is the more potent here.

Compared with `COc1ccc(C(=O)COC(=O)[C@H](C)Nc2ccc(C(F)(F)F)cc2[N+](=O)[O-])cc1`, `CCC(=O)c1ccc(OCC(O)CN2CCN(c3cccc(C(F)(F)F)c3)CC2)cc1` (stereo not given) is 1.8-fold higher in IC50: 11.2 µM for the first, 19.9 µM for the second.

Compared with `CCc1cccc2c(=O)c(C(=O)N3CCOCC3)c[nH]c12`, `CCc1ccc2[nH]c(=O)c(CN(CCCN3CCOCC3)C(=O)Nc3cccc(Cl)c3)cc2c1` is 3.6-fold higher in IC50: 6.62 µM for the first, 24.1 µM for the second.

`NC(=S)N=Nc1ccc(NN=C(N)N)cc1` and `C/C(CC(=O)Nc1ccc(Cl)cc1C(F)(F)F)=N\NC(N)=S` are within 1.5-fold of each other in IC50: 16.9 µM for the first, 16 µM for the second.

Compared with `Cc1ccc(-c2ccc(C3C(C#N)=C(N)Oc4n[nH]c(C)c43)o2)cc1` (stereo not given), `N#C/C(=C\c1ccc(-c2ccc(Br)cc2)o1)C(=O)NCCc1c[nH]c2ccccc12` is 3.9-fold higher in IC50: 24.5 µM for the first, 96.1 µM for the second.

Compared with `O=c1c2ccc(Cl)cc2nc(-c2ccc([N+](=O)[O-])cc2)n1O`, `O=C(OCc1ccc([N+](=O)[O-])cc1)c1cc2ccccc2oc1=O` is 11-fold lower in IC50: 82.6 µM for the first, 7.82 µM for the second.

Compared with `Cc1nc2sccn2c1-c1nc(-c2cc3ccccc3o2)cs1`, `c1ccc(-c2nc3c(ccc4ccccc43)[nH]2)nc1` is 7.8-fold lower in IC50: 52.5 µM for the first, 6.75 µM for the second.

`O=C(OCC(=O)N1CCN(c2ccccc2)CC1)c1cnc(Cl)c(Cl)c1` and `O=C(OCC(=O)N1CCCc2ccccc21)c1ccc(S(=O)(=O)C(F)F)cc1` are within 1.5-fold of each other in IC50: 20 µM for the first, 24.1 µM for the second.

Going from `C[CH2][Hg][S]c1ccccc1C(=O)O` to `CC(=O)/C=C(\C)Nc1ccccc1O`, the IC50 rises from 0.34 µM to 3.57 µM (10-fold).

Compared with `COc1cccc2c1C(=O)c1c(O)c3c(c(O)c1C2=O)C[C@@](O)(C(=O)CO)C[C@@H]3O[C@H]1C[C@H](N)[C@@H](O)[C@H](C)O1`, `COc1cc2c(cc1NC(=O)CN1C(=O)NC3(CCc4ccccc43)C1=O)oc1ccccc12` (stereo not given) is 11-fold higher in IC50: 2.64 µM for the first, 29.5 µM for the second. The first is the more potent here.

`Nc1c(N(CCC2=CCCCC2)C(=O)c2ccc([N+](=O)[O-])o2)c(=O)[nH]c(=O)n1Cc1ccccc1` and `COCCN(C(=O)C1CC(=O)N(Cc2ccccc2)C1)c1nc(-c2ccc([N+](=O)[O-])cc2)cs1` (stereo not given) are within 1.5-fold of each other in IC50: 16.6 µM for the first, 24.5 µM for the second.

First: CC1C/C(=C\c2cccnc2)C(=O)/C(=C/c2cccnc2)C1 (stereo not given)
Second: Cc1nc(N2CCC(C)CC2)c2oc3ccccc3c2n1
The IC50 of the first is 7.1-fold lower: 3.38 µM for the first, 24 µM for the second. The first is the more potent here.

First: CN1CCN2c3ccccc3Cc3ccccc3C2C1 (stereo not given)
Second: c1ccc(Cn2nnc3c(N4CCc5ccccc5C4)ncnc32)cc1
The IC50 of the first is 2.2-fold higher: 42.8 µM for the first, 19.7 µM for the second. The second is the more potent here.

Compared with `O=C1C2C(C(=O)N1/N=C/c1ccc([N+](=O)[O-])o1)C1C=CC2C12CC2` (stereo not given), `O=C(N/N=C/c1ccc([N+](=O)[O-])o1)c1sc2ccccc2c1Cl` is 7.2-fold lower in IC50: 19 µM for the first, 2.65 µM for the second.

Going from `O=C(NCC1CC1)c1cc([N+](=O)[O-])cc([N+](=O)[O-])c1` to `Nc1cc([N+](=O)[O-])cc2oc(-c3ccccc3)cc12`, the IC50 rises from 5.75 µM to 98.3 µM (17-fold). The first is the more potent here.

`Cc1ccc(-c2noc(C3CCCN(C(=O)c4ccc(C(C)(C)C)cc4)C3)n2)o1` (stereo not given) and `Cc1ccc(C)c(N2CCN(C(=O)c3ccc4nc(N5CCOCC5)sc4c3)CC2)c1` are within 1.5-fold of each other in IC50: 48.2 µM for the first, 37.6 µM for the second.

Compared with `CCCNC1=C(N(C(C)=O)c2cccc(F)c2)C(=O)c2ccccc2C1=O`, `CC(=NCc1ccc2c(c1)OCO2)C1=C(O)c2ccccc2C1=O` is 10-fold lower in IC50: 11.4 µM for the first, 1.09 µM for the second.

`CCN=c1scc(-c2ccco2)n1/N=C/c1ccc(OC)c(O)c1` and `COc1cc(/C=N/NC(=O)COc2ccc(C)cc2)ccc1OC(=O)c1cccs1` are within 1.5-fold of each other in IC50: 12.3 µM for the first, 18.1 µM for the second.

First: Cc1ccc(CNC(=O)c2sc3nc4c(c(C(F)(F)F)c3c2N)CCC4)cc1
Second: Oc1cccc(-c2nc3ccc4ccccc4c3c3c2CCC3)c1
The IC50 of the first is 4.9-fold higher: 35.7 µM for the first, 7.31 µM for the second. The second is the more potent here.

Compared with `Cc1cc(C(=O)N[C@H](c2ccccc2)[C@@]2(C)C[C@@H]2[C@@H](C)C(=O)Nc2ccc3ccccc3c2)n(C)n1`, `CN(C)S(=O)(=O)c1cccc(NC(=O)CSc2cccc3cccnc23)c1` is 2.4-fold higher in IC50: 24.4 µM for the first, 58.6 µM for the second.

Compared with `Cc1cccc(/C=C/C(=O)c2ccc([N+](=O)[O-])o2)c1`, `Cc1cccc(/C=C/c2onc(C)c2[N+](=O)[O-])n1` is higher in IC50: under 0.2 µM for the first, 10.9 µM for the second. The first is the more potent here.

First: CN(Cc1ccc(Br)cc1)C(=O)CCN1C(=O)c2cccc([N+](=O)[O-])c2C1=O
Second: COc1ccc(OCc2cccc(C(=O)Nn3cc([N+](=O)[O-])cn3)c2)cc1
The IC50 of the first is 2.9-fold higher: 29.1 µM for the first, 9.92 µM for the second.

`Cc1ccc(NCc2ccc(O)c3ncccc23)cc1C` and `Cc1ccc2c(c1)c1ncnc(N3CCc4ccccc4C3)c1n2C` are within 1.5-fold of each other in IC50: 56 µM for the first, 81.1 µM for the second.

Compared with `CCOC(=O)c1sc2ncnc(NCC(c3cccs3)N(C)C)c2c1C` (stereo not given), `CCN(CC)S(=O)(=O)c1ccc2oc(SCC(=O)Nc3cc(C)on3)nc2c1` is 25-fold lower in IC50: 34.9 µM for the first, 1.39 µM for the second. The second is the more potent here.

Going from `COc1ccccc1C1c2ccc3ccccc3c2Oc2ncn(CCN(C)C)c(=N)c21` (stereo not given) to `Fc1cccc(CCN2CCNC[C@H]2Cc2cccc3ccccc23)c1`, the IC50 rises from 22.3 µM to 36.6 µM (1.6-fold).

Going from `c1ccc(CSc2ccc(-c3ccccn3)nn2)cc1` to `OCC(O)/C=N/Nc1nc(Nc2ccccc2)nc(Nc2ccccc2)n1` (stereo not given), the IC50 falls from 23.4 µM to 9.56 µM (2.4-fold).

Going from `COc1ccc(COc2cc(-c3cccc(OC)c3)nc3ccc(NC(=O)c4ccc(OC)cc4)cc23)cc1` to `COc1cc(/C=C/c2cc[n+](C)cc2)ccc1OCC(=O)Nc1ccc(Cl)c(Cl)c1`, the IC50 rises from 5.42 µM to 21.7 µM (4-fold).

Going from `Cc1cccc(-c2ncc(CN3CCC(CO)(CCCc4ccccc4)CC3)cn2)c1` to `COc1ccc(-c2cc3c(=O)n(CC(=O)NCCCN4CCC(Cc5ccccc5)CC4)ncn3n2)cc1`, the IC50 falls from 44.1 µM to 23.7 µM (1.9-fold). The second is the more potent here.

Going from `CCCCOC(=O)c1c(C)oc2ccc(NS(=O)(=O)c3ccc4c5c(cccc35)C(=O)N4)cc12` to `COc1ccccc1/C=C/C(=O)Nc1ccc(S(=O)(=O)Nc2cc(C)on2)cc1`, the IC50 falls from 78.7 µM to 5.01 µM (16-fold). The second is the more potent here.

Compared with `O=C1/C(=N\S(=O)(=O)c2cccs2)C([n+]2ccc(CCCc3ccccc3)cc2)=C([O-])c2ccccc21`, `Cc1cc(/C=C\c2ccc3cc(N(C)C)ccc3[n+]2C)c(C)n1-c1ccccc1` is 9.8-fold lower in IC50: 18.2 µM for the first, 1.86 µM for the second.

First: c1nc2n(n1)C1=C(CCCC1)C1(CCCCC1)N2
Second: Cc1ccc(/C=C2\SC(N3CCCC3)=NC2=O)cc1
The IC50 of the first is 27-fold higher: 10.2 µM for the first, 0.38 µM for the second.

Going from `COC(=O)C(C)Oc1ccc2c(c1)O/C(=C\c1ccco1)C2=O` (stereo not given) to `CCc1ccc(N=C2NC(=O)/C(=C/c3cc(OC)c(O)c(OC)c3)S2)cc1`, the IC50 rises from 5.58 µM to 33.2 µM (5.9-fold). The first is the more potent here.

Going from `Cc1cc(C)c2nc(-c3ccncc3)cc(C(=O)N3CCN(Cc4ccccc4Cl)CC3)c2c1` to `N#Cc1ccc(OCC(O)CN2CCN(c3ncc(C(F)(F)F)cc3Cl)CC2)cc1` (stereo not given), the IC50 falls from 23.2 µM to 15.2 µM (1.5-fold). The second is the more potent here.

`CCOc1ccc2nc(NC(=O)C34CC5CC(CC(NC(C)=O)(C5)C3)C4)sc2c1` and `COc1ccc(C(=O)C2CCCN(C3CSCCSC3)C2)c(C)c1` (stereo not given) are within 1.5-fold of each other in IC50: 17.8 µM for the first, 23.1 µM for the second.

First: CCOc1cc(-c2c(C#N)c(=O)[nH]c3c2c(C)nn3-c2ccc(F)cc2)ccc1O
Second: O=C(Nc1ccc([N+](=O)[O-])cc1)Nc1ccc(OC(F)F)c(Cl)c1
The IC50 of the first is 2.3-fold lower: 1.21 µM for the first, 2.83 µM for the second. The first is the more potent here.

Going from `CNC[C@H](Cc1cccc2ccccc12)NC[C@H](CCSC)NCC1CCC(C(C)(C)C)CC1` (stereo not given in full) to `Cc1ccc(C#CC[N+]2(CC#Cc3ccc(C)cc3)CCCCC2)cc1`, the IC50 falls from 22.4 µM to 12.7 µM (1.8-fold).

First: Cc1ccc(Nc2nc(CSc3nnc(-c4cccs4)o3)cs2)cc1
Second: Cc1ccc(/C=C/S(=O)(=O)NCC(=O)OCC(=O)Nc2c(F)cccc2F)cc1
The IC50 of the first is 7.7-fold higher: 40.7 µM for the first, 5.26 µM for the second. The second is the more potent here.

Going from `O=C(CCl)Nc1sccc1C(=O)c1ccccc1` to `Cc1ccc(N(CCC#N)C(=O)CCl)cc1C`, the IC50 rises from under 0.2 µM to 0.98 µM.

First: CC(C)Cn1c([N+](=O)[O-])nc2c1c(=O)[nH]c(=O)n2C
Second: Cn1ncnc2c(=O)n(C)c(=O)nc1-2
The IC50 of the first is 3.6-fold higher: 5.93 µM for the first, 1.66 µM for the second.

Same assay, conditions: measured here: IC90 growth inhibition

In the case of `O=C(Oc1ccccc1)c1ccccc1OS(=O)(=O)c1ccccc1`, the IC90 is reported as 14.3 µM.
